Measured values published in patent publication US20090263317A1, “METHOD OF SCREENING THE ACTIVITY OF THE SMOOTHENED RECEPTOR TO IDENTIFY THERAPUTIC MODULATION AGENTS OR DIAGNOSE DISEASE” (priority 2005, published 2009).

Target: T1, Smo (Homo sapiens, UniProt Q99835)
T1 construct: expressed in transfected cells; host or cells: HEK293
Test: Membrane recruitment (translocation) of βarr2-GFP, confocal imaging
Type: cell-based
Excerpt: Localization of beta-arrestin2 green fluorescent protein (βarr2-GFP) to the plasma membrane in cells overexpressing Smo seen in FIG. 1: Confocal images of βarr2-GFP expressed alone (A) or with Myc-Smo (B) in Human embryonic kidney (HEK)293 cells. (C) Effects of Ptc, ShhN, and G protein coupled receptor kinase (GRK2) on recruitment of βarr2-GFP to the plasma membrane. βarr2-GFP was expressed with Myc-Smo (bar 1), Myc-Smo and FLAG-Ptc (bar 2), Myc-Smo and FLAG-Ptc (co-cultured with HEK293 expressing Sonic hedgehog (Shh)N-terminus, an active form of Shh (bar 3), or Myc-Smo and GRK2 (bar 4) in HEK293 cells. Data are presented as the percentage of βarr2-GFP-13 expressing cells with recruitment of βarr2-GFP and are the means±SEM of three independent experiments. *P<0.05 (compared with bar 1) and **P<0.005 (compared with bar 2) (unpaired t test).
Confocal images of βarr2-GFP expressed with FLAG-Ptc (A), FLAG-Ptc and Myc-Smo (B), and Myc-Smo (C and D) in HEK293 cells. Cells were left untreated (A to C) or treated with 8 μM cyclopamine (D) at 37° C. for 5 min. […] (F and G) Confocal images of cells stimulated with 0.3 μM SAG at 37° C. for 0 min (F) and 30 min (G). HEK293 cells were transfected with βarr2-GFP, FLAG-Ptc, Myc-Smo, and GRK2.

T1 sequence (Q99835 28-787): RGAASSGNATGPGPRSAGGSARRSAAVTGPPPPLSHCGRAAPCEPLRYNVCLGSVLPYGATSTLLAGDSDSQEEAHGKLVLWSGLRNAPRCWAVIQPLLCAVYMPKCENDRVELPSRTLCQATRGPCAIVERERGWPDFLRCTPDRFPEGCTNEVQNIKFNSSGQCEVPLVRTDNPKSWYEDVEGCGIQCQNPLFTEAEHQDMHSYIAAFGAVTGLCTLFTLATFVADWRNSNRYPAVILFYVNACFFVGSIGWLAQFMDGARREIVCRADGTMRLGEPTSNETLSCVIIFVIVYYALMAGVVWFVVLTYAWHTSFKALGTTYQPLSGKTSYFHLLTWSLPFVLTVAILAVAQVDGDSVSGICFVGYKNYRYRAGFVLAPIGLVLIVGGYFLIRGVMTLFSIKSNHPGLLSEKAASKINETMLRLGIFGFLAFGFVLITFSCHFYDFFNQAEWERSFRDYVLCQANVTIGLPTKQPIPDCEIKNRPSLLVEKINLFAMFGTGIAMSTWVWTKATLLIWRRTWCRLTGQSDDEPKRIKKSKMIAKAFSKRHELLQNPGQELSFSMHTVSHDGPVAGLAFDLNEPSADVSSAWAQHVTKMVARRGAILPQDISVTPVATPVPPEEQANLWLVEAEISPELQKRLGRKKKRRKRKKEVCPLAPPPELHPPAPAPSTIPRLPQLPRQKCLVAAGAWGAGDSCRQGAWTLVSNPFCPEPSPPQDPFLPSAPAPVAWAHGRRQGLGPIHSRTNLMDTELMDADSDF

| Compound | Recruitment of βarr2-GFP to the plasma membrane under Ptc inhibition (HEK293 cells transfected with βarr2-GFP, FLAG-Ptc, Myc-Smo and GRK2, 0.3 μM SAG at 37° C., 30 min versus 0 min) | Recruitment of βarr2-GFP to Smo (HEK293 cells expressing βarr2-GFP and Myc-Smo, 8 μM cyclopamine at 37° C. for 5 min, versus untreated) |
| --- | --- | --- |
| CNC1CCC(N(Cc2cccc(-c3ccncc3)c2)C(=O)c2sc3ccccc3c2Cl)CC1 (centres unmarked) [SAG] | relieves Ptc inhibition of recruitment of βarr2-GFP to the plasma membrane |  |
| CC1=C2C[C@H]3[C@@H](CC=C4C[C@@H](O)CC[C@@]43C)[C@@H]2CC[C@]12O[C@@H]1C[C@H](C)CN[C@H]1[C@H]2C [cyclopamine] |  | ablated |
